# Results reported in PMC4230991, “In Silico Design and Biological Evaluation of a Dual Specificity Kinase Inhibitor Targeting Cell Cycle Progression and Angiogenesis” (PLoS ONE, 2014).
# pIC50: −log10 of the molar value. Where two headings read alike, the source gives them in different places.
# Assays:
# recombinant human VEGFR2 = target: T1, recombinant human VEGFR2 (Homo sapiens, UniProt P35968); experiment: 33P in vitro kinase HotSpot profiling assay, VEGFR2; type: biochemical
# T1 construct: purchased Reaction Biology
# T1 sequence (P35968 20-1356): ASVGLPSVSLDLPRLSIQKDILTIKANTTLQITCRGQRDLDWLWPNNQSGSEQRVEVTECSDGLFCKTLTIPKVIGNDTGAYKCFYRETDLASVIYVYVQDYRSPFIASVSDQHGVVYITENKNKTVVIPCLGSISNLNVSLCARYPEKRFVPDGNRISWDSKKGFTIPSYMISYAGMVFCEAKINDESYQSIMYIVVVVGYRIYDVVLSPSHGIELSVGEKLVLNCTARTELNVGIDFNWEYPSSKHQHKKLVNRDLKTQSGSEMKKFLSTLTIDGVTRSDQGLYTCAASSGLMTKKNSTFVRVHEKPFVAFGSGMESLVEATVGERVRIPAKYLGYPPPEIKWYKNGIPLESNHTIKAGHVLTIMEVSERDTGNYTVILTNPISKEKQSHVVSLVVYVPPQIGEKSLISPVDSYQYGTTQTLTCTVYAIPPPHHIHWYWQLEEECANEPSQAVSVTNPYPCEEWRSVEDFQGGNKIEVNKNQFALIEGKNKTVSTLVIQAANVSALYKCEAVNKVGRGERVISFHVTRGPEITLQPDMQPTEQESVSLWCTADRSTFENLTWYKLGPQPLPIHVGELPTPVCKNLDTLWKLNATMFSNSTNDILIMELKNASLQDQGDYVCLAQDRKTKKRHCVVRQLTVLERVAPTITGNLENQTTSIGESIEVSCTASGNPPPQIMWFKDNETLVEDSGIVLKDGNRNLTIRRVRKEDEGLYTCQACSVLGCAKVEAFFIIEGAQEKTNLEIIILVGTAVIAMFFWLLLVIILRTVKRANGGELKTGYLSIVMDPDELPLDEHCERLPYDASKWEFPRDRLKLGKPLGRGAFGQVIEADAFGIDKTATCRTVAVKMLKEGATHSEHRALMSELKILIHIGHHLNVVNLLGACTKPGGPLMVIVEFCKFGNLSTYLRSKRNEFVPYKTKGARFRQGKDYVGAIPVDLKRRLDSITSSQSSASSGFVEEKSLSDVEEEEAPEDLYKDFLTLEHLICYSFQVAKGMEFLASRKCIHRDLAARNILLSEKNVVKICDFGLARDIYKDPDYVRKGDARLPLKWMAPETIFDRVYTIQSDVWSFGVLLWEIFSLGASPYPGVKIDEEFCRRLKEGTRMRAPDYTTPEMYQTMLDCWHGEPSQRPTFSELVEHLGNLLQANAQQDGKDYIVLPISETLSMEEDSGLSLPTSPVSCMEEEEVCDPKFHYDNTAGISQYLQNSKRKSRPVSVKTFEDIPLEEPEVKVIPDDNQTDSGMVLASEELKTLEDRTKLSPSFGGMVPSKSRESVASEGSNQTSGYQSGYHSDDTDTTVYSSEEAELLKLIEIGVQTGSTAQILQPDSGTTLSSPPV
# [1] = target: T2, recombinant human CDK1/cyclin B complex (Homo sapiens, UniProt P06493); experiment: 33P in vitro kinase HotSpot profiling assay, CDK1/cyclin B; type: biochemical; conditions: [γ-33P]-ATP 10 µM; substrate histone H1; ten-point curves
# T2 construct: purchased Reaction Biology
# T2 sequence (P06493 whole entry): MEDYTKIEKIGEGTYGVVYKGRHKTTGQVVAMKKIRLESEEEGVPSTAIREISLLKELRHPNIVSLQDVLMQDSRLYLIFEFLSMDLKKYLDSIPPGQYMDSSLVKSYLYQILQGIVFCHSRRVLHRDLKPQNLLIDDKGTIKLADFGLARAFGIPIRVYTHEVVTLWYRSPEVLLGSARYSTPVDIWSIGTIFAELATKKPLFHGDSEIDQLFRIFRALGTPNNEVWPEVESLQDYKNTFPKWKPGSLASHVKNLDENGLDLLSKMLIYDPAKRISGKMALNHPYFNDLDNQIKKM
# T2 sequence (P14635 whole entry partner): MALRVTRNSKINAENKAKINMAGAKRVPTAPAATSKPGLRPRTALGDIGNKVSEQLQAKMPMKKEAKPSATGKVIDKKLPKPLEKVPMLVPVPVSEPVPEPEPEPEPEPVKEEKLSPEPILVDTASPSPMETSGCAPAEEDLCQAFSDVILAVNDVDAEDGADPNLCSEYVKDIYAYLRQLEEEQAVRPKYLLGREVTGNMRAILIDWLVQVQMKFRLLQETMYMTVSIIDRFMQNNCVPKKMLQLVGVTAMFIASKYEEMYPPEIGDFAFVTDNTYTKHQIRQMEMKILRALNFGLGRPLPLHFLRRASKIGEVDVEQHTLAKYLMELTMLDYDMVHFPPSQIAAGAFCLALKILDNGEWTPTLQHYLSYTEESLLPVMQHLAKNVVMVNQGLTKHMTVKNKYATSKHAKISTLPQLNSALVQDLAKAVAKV
# VEGFR2 = experiment: Immunoblot of VEGF-A-stimulated VEGFR2 activation and downstream signaling in HUVECs; type: cell-based, human
# Procedure: (§1) All experiments were conducted at <6 cell passages.
# (§2) Figure 2 JK-31 inhibits growth factor-stimulated receptor activation and downstream signal transduction. (A) HUVECs were pre-treated with JK-31 (0, 0.1, 1, 10 or 50 µM) for 30 min followed by 7.5 min stimulation with VEGF-A (25 ng/ml) in the presence of JK-31. Total cell lysates were prepared and processed for immunoblotting. Levels of phosphorylated VEGFR2, PLCγ1, Akt and ERK were analysed using phospho-specific antibodies. Membranes were stripped and re-probed for total protein levels and a loading control (α-tubulin). (B) Densitometric quantification of phosphorylated VEGFR2-pY1175 levels in response to VEGF-A and JK-31 treatment. Error bars represent ± SEM (n = 4; ***p<0.001). (C-D) JK-31 inhibits FGF-stimulated intracellular signaling in endothelial cells. HUVECs were pre-treated with JK-31 (0, 0.1, 1, 10 or 50 µM) for 30 min followed by 10 min stimulation with either (C) bFGF (50 ng/ml) or (D) aFGF (50 ng/ml) in the presence of JK-31. Cells were lysed and processed for immunoblotting. Representative immunoblots of three independent experiments are shown.
# [2] = system: FGF-stimulated intracellular signaling; experiment: Immunoblot of FGF (aFGF, bFGF)-stimulated ERK1/2 phosphorylation in HUVECs; type: cell-based, human; conditions: JK-31 0.1-50 µM
# Procedure: as §1, §2
# IGF-1-mediated signaling = experiment: Immunoblot of IGF-1-mediated signaling in HUVECs; type: cell-based, human; conditions: JK-31 0.1-50 µM, IGF-1 100 ng/ml 10 min
# Procedure: as §1
# Supplementary file pone.0110997.s006.tif: Figure S6 Relative specificity of JK-31 for the VEGF-A-VEGFR2 signaling pathway. […] HUVECs were pre-treated with JK-31 (0, 0.1, 1, 10 or 50 µM) for 30 min followed by a 10 min stimulation with either (A) EGF (50 ng/ml) or (B) IGF-1 (100 ng/ml) in the presence of JK-31. Total cell lysates were prepared and processed for immunoblotting. Levels of phosphorylated Akt and ERK1/2 were analysed using phospho-specific antibodies. Membranes were stripped and re-probed for total protein levels and a loading control (α-tubulin). Representative immunoblots of three independent experiments are shown. (TIF) Click here for additional data file.
# [3] = system: mouse aortic ring explants; experiment: Ex vivo murine aortic ring angiogenesis assay; type: cell-based; conditions: 10 µM and above, six days, Matrigel
# Procedure: Three male five-month old wild type C57Bl/6 mice were humanely sacrificed followed by cervical dislocation. A thoraco-abdominal incision was made and the heart and aorta excised and stored in Hank's balanced buffer. The aortas were cleaned by removing connective tissue and adventitia from the exterior and each aorta was cut into 18–24 rings. Ring explants were embedded into growth-factor reduced Matrigel basement membrane matrix (Beckton Dickinson) in a 24-well plate and incubated for 45 min at 37°C to allow the Matrigel to set and the rings to adhere. […] Rings were photographed and the degree of sprouting measured using Cell∧B imaging software (Olympus, Tokyo, Japan). The mean of the three longest angiogenic sprouts on each ring was measured.
# Figure 3 JK-31 inhibits angiogenesis in an ex vivo murine model and in vitro. […] (B) Absolute quantification of angiogenic sprout length. For each aortic ring, the mean of three longest sprouts was calculated. […] (D) Fluorescence microscopy analysis of endothelial cell phenotypes and filopodia formation during tubulogenesis in the presence of VEGF-A and JK-31. […] Quantification of (F) mean tubule branch length and (G) mean number of tubule branch points in response to JK-31 and exogenous growth factors. Light micrograph fields were chosen at random and quantification performed using Image J software. […]
# HUVECs [4] = experiment: Organotypic tubulogenesis assay (HUVEC-fibroblast co-culture); type: cell-based, human; conditions: for inhibition at 10 µM / inhibition at 50 µM: Homo sapiens, HUVEC
# Procedure: This assay was performed as previously described, [27]. Primary human foreskin fibroblasts (pHFF) were a gift from Gareth Howell (University of Leeds, UK) and were cultured routinely in DMEM containing 10% (v/v) FBS up to passage 10. In co-culture with HUVECs, the medium was replaced for endothelial cell growth medium (Promocell, Heidelberg, Germany).
# Figure 3 JK-31 inhibits angiogenesis in an ex vivo murine model and in vitro. (A) Effects of JK-31 on ex vivo angiogenic sprouting from wild-type mouse aortic ring explants. Aortic rings were seeded onto Matrigel and treated with JK-31 (0, 1, 10 or 50 µM) for six days and imaged by phase-contrast microscopy. Freehand black lines delineate the outermost extent of sprouting. (B) Absolute quantification of angiogenic sprout length. For each aortic ring, the mean of three longest sprouts was calculated. Error bars represent ±SEM (n = 18; ***p<0.001). (C) JK-31 inhibits endothelial tube formation in vitro in response to exogenous VEGF-A. HUVECs were seeded onto a confluent layer of primary fibroblasts and treated with VEGF-A (10 ng/ml) for seven days in the presence of DMSO or JK-31 (1, 10 or 50 µM). Co-cultures were stained with CD31 antibody followed by HRP-conjugated secondary antibody and visualized by light microscopy using […] (DAB)-staining (see Materials and Methods). (D) Fluorescence microscopy analysis of endothelial cell phenotypes and filopodia formation during tubulogenesis in the presence of VEGF-A and JK-31. White arrowheads indicate vestigial lamellipodia-like structures. (E) JK-31 inhibits endothelial tube formation in vitro in response to exogenous bFGF (20 ng/ml). Treatment and processing was carried out as described above. Quantification of (F) mean tubule branch length and (G) mean number of tubule branch points in response to JK-31 and exogenous growth factors. Light micrograph fields were chosen at random and quantification performed using Image J software. Error bars represent ± SEM (n = 10; *p<0.05; **p<0.01; ***p<0.001) for each respective growth factor.
# HUVECs [5] = experiment: Scratch wound healing assay; type: cell-based, human; conditions: 10 µM and above, 16 h
# Procedure: Figure 4 JK-31 inhibits endothelial wound closure in vitro. (A) Scratch-wounded endothelial cell monolayers were incubated in either full growth medium (grey bars) or stimulated with 25 ng/ml VEGF-A (black bars) for 16 h in the presence of DMSO or JK-31 (1, 10 or 50 µM). Wounded cell monolayers were photographed before and after treatment and wound widths at each time point were measured using Image J software. Percentage wound closure was calculated by [(width before – width after)/width before] ×100. […] (B) Representative phase-contrast micrographs depicting wound closure over 16 h in the presence VEGF-A and either DMSO or JK-31 (10 µM).
# HUVECs [6] = experiment: MTS cell viability assay; type: cell-based, human; conditions: two days (48 h), concentrations of up to 50 µM
# Procedure: 2000 endothelial cells were seeded per well of a 96-well plate and cultured in ECGM overnight. ECGM was then aspirated and cells starved in MCDB131 +0.2% (w/v) BSA for 2 h. After 2 h, media was changed for ECGM with or without DMSO, plus or minus 100 nM, 1 µM, 10 µM or 50 µM JK-31 and cells incubated for 48 h. Then, 10 µl of MTS reagent (CellTiter 96 AQueous Non-Radioactive Cell Proliferation Assay, Promega, Madison, Wisconsin, USA) was added to each well after 44 h. After further incubation for 4-6 h, we monitored the color change caused by reduction of the yellow tetrazolium compound (MTS) by metabolically active cells to brown formazan. Change in color was monitored at 490 nm using a Tecan Sunrise multiwavelength 96-well plate reader (Tecan, Mannedorf, Switzerland).
# (A) Relevant protein expression in HUVECs and MCF-7 cells. Total cell lysates were processed for immunoblotting. Membranes were probed with antibodies raised against VEGFR2, CDK1 and β-actin. Representative immunoblot was shown. (B) HUVECs were treated with DMSO or JK-31 (0.1, 1, 10, 50 µM) in full growth medium for 48 h followed by MTS assay and subsequent measurement of absorbance at OD490. Error bars represent ±SEM (n = 5). (TIF) Click here for additional data file.
# HUVECs [7] = experiment: Flow cytometry analysis of cell cycle progression, endothelial cells; conditions: 48 h
# Procedure: (§3) Cells were pelleted at 140 g at 4°C for 5 min and supernatant discarded. Cells were fixed in ice-cold 70% (v/v) ethanol added dropwise and stored at −20°C prior to analysis. Immediately before flow cytometry, cells were pelleted (140 g at 4°C for 5 min), supernatant removed and cells washed twice in 500 µl PBS. 100 µg/ml ribonuclease and 50 µg/ml propidium iodide (Sigma-Aldrich) was added to each sample and incubated for 2–3 h at 37°C. Cells were pelleted (140 g at 4°C for 5 min), supernatant removed and cells washed in 500 µl PBS before being resuspended in 500 µl PBS buffer containing 2.5 mM EDTA. Samples were gated and run at a low flow rate (<1000 events s^−1) on a Fortessa flow cytometer (Becton Dickinson, Oxford, UK) with multi-laser and detection capabilities. The information from 10000 events was collect and data was analyzed using ModFit software (Becton Dickinson).
# (H) Quantification of cell cycle ratios after inhibitor treatment. Error bars represent ±SEM (n = 3). ***p<0.001; ****p<0.0001.
# MCF-7 cells = experiment: Flow cytometry analysis of cell cycle progression, breast cancer cells; conditions: 48 h
# Procedure: as §3
# (H) Quantification of cell cycle ratios after inhibitor treatment. Error bars represent ±SEM (n = 3).). *p<0.05; **p<0.01; ***p<0.001; ****p<0.0001.
# [8] = target: T2, recombinant human CDK1/cyclin B complex; set-up: method as in PMID 16204078; conditions: relative potency from IC50 values of a previous study; cited from earlier work
# [9] = JK-31 10 or 50 µM, vs asynchronous controls
structure (smiles),measurement,setting,value
"CC(C)(C)c1ccc(C(=O)n2nc(Nc3ccccc3)nc2N)cc1 [JK-31, (5-amino-3-(phenylamino)-1H-1,2,4-triazol-1-yl)(4-(tert-butyl)phenyl)methanone]",pIC50,"recombinant human VEGFR2; [γ-33P]-ATP 10 µM, substrate poly[Glu:Tyr] (4:1), ten-point curves",6.20
same,Selectivity for VEGFR2 than CDK1,recombinant human VEGFR2; relative potency from IC50 values,~4 fold
same,pIC50,[1],5.60
same,Inhibition of phosphorylation of residue Y1175 within VEGFR2,"VEGFR2; HUVECs, JK-31 10 µM and above, 30 min pre-treatment, VEGF-A 25 ng/ml 7.5 min",> 60%
same,"VEGF-A-stimulated signal transduction (PLCγ1-pY783, Akt-pS473, ERK1/2-pT202/pY204)","VEGFR2; HUVECs, JK-31 0.1-50 µM, VEGF-A 25 ng/ml 7.5 min",inhibited VEGF-A-stimulated signal transduction in a dose-dependent manner
same,Cellular IC50 relative to cell-free phosphorylation assay,VEGFR2; VEGF-A-stimulated VEGFR2 activation and downstream signaling in endothelial cells vs recombinant kinases,approximately 10 fold
same,ERK1/2 phosphorylation in response to aFGF,[2]; aFGF 50 ng/ml 10 min,dose-dependent inhibition
same,ERK1/2 phosphorylation in response to bFGF,[2]; bFGF 50 ng/ml 10 min,dose-dependent inhibition
same,ERK1/2 phosphorylation in response to IGF-1,IGF-1-mediated signaling,not in response to either EGF or IGF-1
same,Inhibition of radial angiogenic sprout formation,[3],more than 40%
same,Reduction of bFGF-stimulated branching,"HUVECs [4]; 10 µM, bFGF 20 ng/ml",more than 90%
same,Endothelial tubule phenotype,"HUVECs [4]; 10 µM, in the presence of VEGF-A",aberrant hyper-branched endothelial tubule phenotype
same,Reduction in branching (VEGF-A),"HUVECs [4]; 50 µM, VEGF-A 10 ng/ml, seven days",more than 80%
same,Reduction of bFGF-stimulated branching,"HUVECs [4]; 50 µM, bFGF 20 ng/ml",more than 90%
same,inhibition at 10 µM,"HUVECs [4]; 168 h, 10 µM, VEGF-A 10 ng/ml, seven days, read-out: Inhibition of VEGF-A-stimulated endothelial tube formation",~35%
same,inhibition at 50 µM,"HUVECs [4]; 168 h, 50 µM, VEGF-A 10 ng/ml, seven days, read-out: Inhibition of VEGF-A-stimulated endothelial tube formation",> 80%
same,inhibition at 10 µM,"HUVECs [4]; 10 µM, bFGF 20 ng/ml, read-out: Inhibition of bFGF-stimulated endothelial tube formation",~75%
same,inhibition at 50 µM,"HUVECs [4]; 50 µM, bFGF 20 ng/ml, read-out: Inhibition of bFGF-stimulated endothelial tube formation",> 95%
same,VEGF-A-stimulated wound closure,HUVECs [5]; VEGF-A 25 ng/ml,completely inhibited
same,Wound closure in full growth medium,HUVECs [5]; full growth medium,only partially inhibited
same,"Cytotoxic effects on endothelial cells (cell viability, MTS)",HUVECs [6],no significant cytotoxic effects
same,Number of cells present in G1,HUVECs [7]; JK-31 10 or 50 µM,significant increase in the number of cells present in G1
same,Proportion of cells in G2/M phase,HUVECs [7]; [9],significant decrease in the proportion of cells in the G2/M phase
same,Number of cells present in S phase,HUVECs [7]; JK-31 treatment,not a significant change
same,Number of cells present in G1,MCF-7 cells; JK-31 10 or 50 µM,significant increase in the number of cells present in G1
same,Proportion of cells in G2/M phase,MCF-7 cells; [9],significant decrease in the proportion of cells in the G2/M phase
same,Number of cells present in S phase,MCF-7 cells; JK-31 treatment,significantly decreased
Nc1nc(Nc2ccc(S(N)(=O)=O)cc2)nn1C(=O)c1c(F)cccc1F [JNJ-7706621],More potent inhibitor of CDK1 than VEGFR2,[8],~17 fold
